Patent US20050074488A1, “Use of vitamin Ds to down regulate the renin-angiotensin-aldosterone system” (priority 2003, published 2005)

Legend:
PAI-1 = test: Western blot of PAI-1 in primary culture of human coronary artery smooth muscle cells; format: cell-based
renin mRNA expression = test: Northern blot analysis of renin mRNA expression in As4.1-hVDR cells; format: cell-based
Protocol: (§1) Using an in vitro system, an examination was carried out in order to determine the ability of paricalcitol to suppress renin expression. […] This inhibitory activity is confirmed by renin promoter-luciferase assays, which examine the activity of paricalcitol to suppress renin gene transcription.

renin gene promotor = test: renin promoter-luciferase assay; format: cell-based; details: FIG. 2
Protocol: as §1

24(OH)ase = test: effect of drugs on the expression of 24(OH)ase; format: cell-based
Protocol: Two observations may be noted in these studies: (1) 100% inhibition of growth was never achieved even at 1 μM of any of the test compound. Confocal microscopy studies confirm that, although these drugs are potent in inducing the translocation of VDR from cytoplasm to nucleus, not all cells respond to VDRAs even after 2 h of exposure, which may explain the <100% inhibition.

[1] = cited from earlier work

| Structure (SMILES) | potency in reducing the PAI level (PAI-1) | renin-inhibiting activity relative to calcitriol (renin mRNA expression; FIG. 1A and B) | inhibition of renin mRNA expression (renin mRNA expression; Northern blot, FIG. 1) | suppressing the activity of the renin gene promotor, relative to calcitriol (renin gene promotor) | potency on stimulating the expression of 24(OH)ase relative to calcitriol (24(OH)ase) | survival benefit for CKD patients relative to calcitriol ([1]; CKD patients) | potency in the clinical studies relative to calcitriol ([1]; clinical studies) |
| --- | --- | --- | --- | --- | --- | --- | --- |
| C=C1/C(=C\C=C2/CCC[C@]3(C)[C@@H]([C@H](C)CCCC(C)(C)O)CC[C@@H]23)C[C@@H](O)C[C@@H]1O [calcitriol] | equally potent |  |  |  |  |  |  |
| C[C@H](/C=C/[C@H](C)C(C)(C)O)[C@H]1CC[C@H]2/C(=C/C=C3C[C@@H](O)C[C@H](O)C3)CCC[C@]12C [paricalcitol] | equally potent | a bit more potent than calcitriol | dose-dependently inhibits renin mRNA expression | as least as potent as calcitriol | less potent than calcitriol | more profound for paricalcitol over calcitriol | less potent than calcitriol |
